Data published in a melting point compilation (Tetko et al.; mined from patent text by program, amines drawn as free bases though some values may be those of a salt).

melting point [°C] | SMILES
156 to 157 | O=C(Nc1ccc(OCCN2CCOCC2)c2ccccc12)NC1CC1c1ccccc1 (stereo not given)
158 to 161 | O=S(=O)(CCO)CCCS(=O)(=O)CCO
207 | Cn1c(=O)[nH]c2cc(F)ccc21
163 to 166 | Oc1cccc2c1c1cccc(Cl)c1n2Cc1ccccc1
76 to 77 | CC(=NOCCO)c1ccc(N(C)S(=O)(=O)c2ccccc2)cc1
98 to 101 | CC(C)(C)OC(=O)c1ccccc1-c1ccc(CBr)cc1
75 to 77 | CCOCn1c(-c2ccc(Cl)cc2)c(C#N)c(Sc2ccc(Cl)c(Cl)c2)c1C(F)(F)F
142 to 146 | COCCOc1cccc(-c2ccc(C3CCN(S(=O)(=O)C(C)(C)C(=O)O)CC3)cc2C)n1
121 to 122 | Cc1c(Cl)cc2nc(Cl)c(Cl)nc2c1[N+](=O)[O-]
62 to 64 | COC(=O)CNC(=O)NCCCCC1CCSS1 (stereo not given)
224 | Cc1ccc(O)c(Cn2c(NC3CCNC(CCN4CCOCC4)C3)nc3ccc(C=Cc4ccccc4)cc32)n1 (stereo not given)
200 to 202 | CCc1ccnc2cc(OC)c(O)cc12
227 to 228 | Cc1cc(C(N)=O)cc([N+](=O)[O-])n1
131 to 133 | O=C(CCC(=O)N1CCC[C@H]1C(=O)O)c1ccc(Cl)s1
194 to 195 | Cc1ccc(-c2c3n(c(=O)c4ncccc24)CCCN(Cc2cc(C(F)(F)F)cc(C(F)(F)F)c2)C3=O)cc1
196 | COCc1ccn2nc(S(=O)(=O)Nc3c(C)cccc3Cl)nc2n1
271 to 272 | CC(=O)Nc1nc2c(Oc3cc(-c4ccc(Br)cc4)ncn3)cccc2s1
164 to 165 | CC(C)(C)CC(=O)Nc1ccc2oc3c(c2c1)CCCC3
35 to 37 | CC(C)=CCCC(C)=CCCC(C)=CCCC(C)=CC=C1SC(=S)N(CC(=O)O)C1=O
58 to 60 | CCCCNC(=O)[C@@H]1Cc2ccccc2CN1
82 | CCc1cc(C(=O)Nc2c(C)cccc2C)no1
64 to 66 | COc1ccc([N+](=O)[O-])c(C(C)=O)c1OC
139 | Cn1cnc2cc(C(c3ccccc3)n3ccnc3)ccc21 (stereo not given)
68 to 71 | CC(C)(C)OC(=O)N1Cc2ccccc2CN1

melting point [°C] | SMILES
91 to 93 | CSc1cc2c(cc1C(F)(F)F)N(C(=O)Nc1cccc(C(=O)NCCN(C)C)c1)CC2
85 to 86 | COc1ccc2cc([C@H](C)C(=O)OCC(=O)OC(C)(C)C)ccc2c1
218 | CC(C)(C)C(=O)OCc1cc2c(cc1C#Cc1ccccc1)NC(=O)CC(c1cccc(C#N)c1)=N2
61 to 62 | CC(=O)c1cccc(-c2ncc(OCCCN(C)C)cn2)c1
119 to 120 | C[Si](CCSCCNC(=O)n1cc(F)c(=O)[nH]c1=O)(c1ccccc1)c1ccccc1
124 | COc1ccc(C2(c3cccc(C(Cc4ccccc4)Cc4ccccc4)n3)OCCCO2)cc1OC
79 to 82 | CN1C2=NC(C)(C)N(C)C(=O)N2c2ccccc21
245 | O=C1C(c2ccc(O)cc2)=C(Br)c2cc(O)ccc21
220 to 222 | COC(=O)NCc1c[nH]c(=S)n1[C@H]1CCc2c(F)cc(F)cc2C1
116 to 117 | CC(=O)SCC(C)C(=O)N(CC(=O)O)C1CCCCCC1 (stereo not given)
74 | C1=CCC(OC2=CC=CC2)=C1
154 to 155 | CCCCn1c(C)c(C)cc(NC(=O)Nc2ccccc2Br)c1=O
91 to 97 | Fc1ccc(N2CCN(Cc3cn4cc(C(F)(F)F)cc(Cl)c4n3)CC2)cc1
151 to 153 | Cc1cn(-c2ccc(N3C[C@H](COS(C)(=O)=O)OC3=O)cc2F)cn1
114 to 116 | O=C(Nc1cc(-c2nc(-c3ccco3)no2)ccc1Cl)OCC(Cl)(Cl)Cl
227 to 229 | Cc1c(Nc2c(C#N)cnc3sc(-c4cccc(CN(C)C)c4)cc23)ccc2[nH]ccc12
139 to 141 | Cn1c(CC#N)ccc1C(=O)c1ccc(Br)cc1
140 to 141 | O=C(O)CCc1conc1-c1ccc(F)c(Cl)c1
226 to 228 | Cn1nc(O[C@@H]2c3cc([N+](=O)[O-])ccc3OC(CF)(CF)[C@H]2O)ccc1=O (relative stereo)
225 to 226 | CC(=O)Oc1ccc(S(=O)(=O)Cl)cc1N=NC(C(C)=O)C(=O)Nc1ccccc1 (stereo not given)
115 to 117 | Cc1c(-c2ccccc2)nn(C(C)(C)C(=O)N(C)C)c1C
106 to 109 | CCCCCCCCCCCC(=O)OC(OC(=O)N1CCN(c2cc3c(cc2F)c(=O)c(C(=O)O)cn3CC)CC1)C(=O)OC(C)C (stereo not given)
132 to 133 | Cc1cc(-c2cc(COS(C)(=O)=O)c(=O)n(Cc3ccc(Cl)cc3)n2)ccc1F
239 to 240 | O=Cc1c(O)cccc1OCc1ccc(C(=O)O)cc1

melting point [°C] | SMILES
121 to 122 | CC(C)(C)OC(=O)N1C(=O)[C@H](O)[C@@H]1C1CCCCC1
190 to 195 | Nc1cccc(-c2ccc(CCN3CCC(N)CC3)cc2)n1
286 to 288 | O=C(O)c1cn(C2CC2)c2c(F)c(N3CC(O)C3)c(F)cc2c1=O
188 to 193 | Cc1cc(CN(C(=O)Nc2ccc(C(=O)O)cc2)c2ccc3c(c2)C(C)(C)CCC3(C)C)no1
186 | COC(=O)c1cc(-c2ccc(Cl)cc2)n(-c2ccc(S(N)(=O)=O)cc2)n1
117 | CCOC(=O)c1cnn2c(C3CC3)cc(-c3ccc(C(F)(F)F)cc3)cc12
208 to 210 | Cn1cc(CS(C)=O)c(=O)c2ccc(C(F)(F)F)cc21 (stereo not given)
101 to 109 | CCCCn1c(=O)c2c(Cl)cc(Cl)cc2n(Cc2ccccc2)c1=O
113 to 116 | NCc1c(Nc2ccccc2)cccc1Oc1ccccc1
191 to 192 | CC(=O)n1ncc2c(O)cc(C)cc21
149 to 151 | O=CN1CCN(c2ccnc(Oc3ccccc3)n2)CC1
272 to 274 | O=C1CCC(N2Cc3c(OCc4cccc(Cl)c4Cl)cccc3C2=O)C(=O)N1 (stereo not given)
186 to 188 | Cc1noc(C)c1-c1nn(Cc2ccccc2)c(=O)c2ccccc12
60.5 to 61.5 | CCCCCCCCCCCCCCSc1ccc(Cl)c(N)c1
172 to 173 | COc1cc2c(cc1OCc1ccccc1)C=C(C(=O)O)CCC2
151 to 156 | CC(C)(C)OC(=O)c1cc(OCc2ccccc2)c(C(=O)c2c(OCc3ccccc3)cccc2C(=O)O)c(OCc2ccccc2)c1
85 to 88 | CCOC(=O)C(SC)C(=O)Nc1ccc(Br)cc1C (stereo not given)
21.5 to 23.5 | CCc1ccc([N+](=O)[O-])cc1COC
170 to 173 | c1cc(-n2ccnc2)nc(-n2cnc3cc(-c4ccoc4)ccc32)c1
201 to 202 | COC(=O)c1ccc(NN=CC(F)(F)F)cc1S(=O)(=O)NC(=O)Nc1nc(OC)cc(OC)n1
206 to 210 | COC(=O)CCc1cc2cc(Cl)ccc2n1S(=O)(=O)c1cccc2c(C(=O)CN)cccc12
71 to 84 | COc1cc(C2CCN(C)CC2)ccc1Nc1ncc2ccc(-c3ccccc3OC)n2n1
130 to 131 | CN(C)CCCN(C)C1CCC2C3CCC4CCCCC4(C)C3C(O)CC21C (stereo not given)
212 to 214 | O=S(Cc1ccc(Cl)cc1)C1CCC(C=CC=Cc2ccc(C(F)(F)F)cc2)CC1 (stereo not given)

melting point [°C] | SMILES
221 to 223 | COc1cccc(Cc2cnc(N)nc2N)c1
153 to 154 | NNC(=O)c1c(OCC(F)(F)F)cccc1OCC(F)(F)F
156 to 157 | CC(NC(=O)NO)c1ccc2ccccc2c1 (stereo not given)
106 to 109 | COC(=O)c1cc(S(C)(=O)=O)c(Nc2ccc(S(F)(F)(F)(F)F)cc2)cc1C
> 300 | CN(C)Cc1cc2nc(C(=O)O)c(=O)[nH]c2cc1[N+](=O)[O-]
132 to 136 | CC(C)(C)C(=O)Nc1ccccc1-c1cc2ccccc2[nH]1
45 | CC(C)(C)COC1CCC(=O)N1 (stereo not given)
135 to 136 | CCOC(=O)CCCC(=O)CNC(=O)c1csc(NC(=O)NCc2ccccc2)n1
108 to 110 | CCOC(=O)c1[nH]c(C)c(C(C)(C)C)c1C
87 to 90 | O=C(O)CCCC(c1ccccc1)c1ccccc1
144 to 147 | COc1ccc2[nH]c(/C(=C/c3ccccc3)c3ccccc3)cc2c1
147 to 148 | CC(Cn1ncc2ccc3c(c21)NC(=O)CO3)NC(=O)OC(C)(C)C (stereo not given)
149 to 151 | COc1ccc(C(=O)c2ccc3c(c2)CC(C(=O)O)C3)cc1 (stereo not given)
137 | O=C(Oc1ccccc1)N1CCCc2nc3ccccc3c(Cl)c2C1
225 | O=C(Nc1cc(S(=O)(=O)NC(CO)CO)sc1Cl)c1cnn2c(C(F)(F)F)cc(-c3ccc(C(F)(F)F)cc3)nc12
51.5 | CC#CCOc1cc(Cc2cccc(F)c2)ncn1
228 | CCOc1ccc2c(c1)n(C1CCCCC1)c(=O)n2S(=O)(=O)c1ccc(C(=O)NC23CC4CC(CC(C4)C2)C3)cc1OC
143 to 144 | CC(O)c1cc2c(OCC(O)CN3CCC(c4ccc5ccccc5c4)CC3)cccc2o1 (stereo not given)
164 to 166 | COc1ccc2c(OC(C)C)c(C(N)=O)sc2c1
113 to 115 | OCCc1ccc(-c2ccc(Cl)cc2)cc1
135 to 136 | O=C(O)c1cccc(-c2cccc3cc(Cc4cccc(F)c4)oc23)c1

SMILES | melting point [°C]
O=C1C=C(NC(=O)C(=O)c2cn(Cc3c(F)c(F)c(F)c(F)c3F)c3ccccc23)CO1 | 280 to 282
Cc1c(C(N)=O)nnn1Cc1c(F)cccc1F | 208 to 210
CCOC(=O)Nc1ncc(-c2nc3ccccc3c(=O)n2-c2cccc(OC)c2)s1 | 235 to 236
NC(=O)OCC(O)COc1cc(-c2cccc(Cl)c2)on1 (stereo not given) | 149 to 150
Cc1nnc2n1-c1ccc(C#CCn3ccc4ccccc43)cc1C(c1ccccc1F)=NC2 | 167 to 169
CC(C)(C)c1cc(CCc2ccccc2NC(=O)N2CCC3(CC2)OCCO3)cc(C(C)(C)C)c1O | 163 to 164
NC(=O)c1ccc(N2CCNCC2)cc1 | 240 to 243
